Data taken from patent US11427553B2, “Dihydrooxadiazinones” (Bayer Aktiengesellschaft, priority 2017, dated 2022).

What was measured:
[1] = biological target: human full length PDE3A (Homo sapiens (Human), UniProt Q14432); experiment: Assay 4 PDE3A enzyme inhibition (3H-cAMP SPA); type: biochemical; conditions: Sf9 cell extract
Description: Assay 4 Method for PDE3A Enzyme Inhibition
(§1) The commercially available 3H-cAMP Scintillation Proximity Assay (SPA, Perkin Elmer) system was used for enzyme inhibition studies. For the determination of the in vitro effect of example compounds on the PDE3A reactions 2 μl of the respective example compound solution in DMSO (serial dilutions) were placed in wells of microtiter plates (Isoplate-96/200W; Perkin Elmer). 50 μl of a dilution of PDE3A cell extract from Sf9 cells overexpressing human full length PDE3A (SB Drug Discovery, UK) in buffer A (50 mM Tris/HCl pH 7.5, 8.3 mM MgCl2, 1.7 mM EDTA, 0.2% BSA) was added. The dilution of the PDE3A cell extract was chosen such that the reaction kinetics was linear and less than 70% of the substrate was consumed (typical dilution 1:5000). The reaction was started by addition of 50 μl (0.025 μCi) of 1:2000 in buffer A w/o BSA diluted substrate [8-3H]adenosine 3′, 5′-cyclic phosphate (1 μCi/μl; Perkin Elmer). After incubation at room temperature for 60 min, the reaction was stopped by addition of 25 μl of a suspension containing 18 mg/ml yttrium scintillation proximity beads (Perkin Elmer) in water. The microtiter plates were sealed and measured in a Microbeta scintillation counter (PerkinElmer Wallac). IC50 values were determined from sigmoidal curves by plotting percentage PDE3A activity vs log compound concentration.

[2] = biological target: human full length PDE3B (Homo sapiens (Human), UniProt Q13370); experiment: Assay 5 PDE3B enzyme inhibition (3H-cAMP SPA); type: biochemical; conditions: Sf9 cell extract
Description: as §1, with “PDE3B” for “PDE3A”, “1:6000).” for “1:5000).”

[3] = tested on: HeLa cells; experiment: Assay 1 cell proliferation measurement (CTG, 72 h), HeLa; type: cell-based, human; conditions: Homo sapiens, HeLa; Assay 1, 72 h, Cell Titer Glo; read-out: HeLa IC50 [nM] (Cervical cancer)
Outline: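 Cells were plated, grown overnight at 37 °C, then treated 72 h with a 10-step 2.5-fold dilution series from 100 nM maximum final (0.3% DMSO vehicle). Viability was read by CellTiter-Glo luminescence. IC50 from a 4-parameter fit, normalised to a 0 h plate (maximum inhibition) and DMSO control (minimum inhibition).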

[4] = tested on: SK-MEL-3 cells; experiment: Assay 1 cell proliferation measurement (CTG, 72 h), SK-MEL-3; type: cell-based, human; conditions: Homo sapiens, SK-MEL3; Assay 1, 72 h, Cell Titer Glo; read-out: SK-MEL-3 IC50 [nM] (melanoma)
Description: Cell Proliferation Measurement
The antiproliferative activity of the compounds of the general formula (I) was examined in vitro in human cancer cells. For this purpose, the appropriate number of cells (Hela: 800; SK-MEL-3: 1000; A549: 800) were plated in 384-well plates with appropriate growth medium ((A549: DMEM/Ham's F12 (Biochrom; #FG 4815 with stabile Glutamine), FCS 10% final (Biochrom; #S 0415); Hela: DMEM/Ham's F12 (Biochrom; #FG 4815 with stabile Glutamine), FCS 10% final (Biochrom; #S 0415); SK-MEL-3: McCoy's 5A (Biochrom; #F 1015), FCS 10% final (Biochrom; #S 0415), L-Alanyl-L-Glutamine final: 2 mM, (Biochrom; #K 0302)) and incubated at 37° C. overnight. After 24 h, cells on one plate (0 h plate) were treated with 30 μl/cavity of CTG solution (Promega Cell Titer Glo (catalogue #G755B and G756B)) and incubated at room temperature for 10 min, and luminescence was measured by means of a VICTOR V (Perkin Elmer), in order to determine cell viability on commencement of treatment. The cells on the test plate were treated with the compounds of the general formula (I) as and incubated at 37° C. for 72 h. The compounds were added to the cells by means of an HP D300 digital dispenser in a 10-step 2.5-fold dilution series generally starting at a maximum final drug concentration of 100 nM. As control, the cells were treated with vehicle (DMSO at 0.3% final concentration). After 72 h, the cells were treated with 30 μl/cavity of CTG solution (Promega Cell Titer Glo (catalogue #G755B and G756B)) and incubated at room temperature for 10 min. and luminescence was measured by means of a VICTOR V (Perkin Elmer), in order to determine cell viability at the end of treatment. The percentage effect on cell growth and the IC50 derived therefrom were determined for each test substance using the values from the 0 h plate […] and the DMSO control […]. The IC50 values were calculated using a 4-parameter fit.

Chain of human full length PDE3B (Q13370 whole entry): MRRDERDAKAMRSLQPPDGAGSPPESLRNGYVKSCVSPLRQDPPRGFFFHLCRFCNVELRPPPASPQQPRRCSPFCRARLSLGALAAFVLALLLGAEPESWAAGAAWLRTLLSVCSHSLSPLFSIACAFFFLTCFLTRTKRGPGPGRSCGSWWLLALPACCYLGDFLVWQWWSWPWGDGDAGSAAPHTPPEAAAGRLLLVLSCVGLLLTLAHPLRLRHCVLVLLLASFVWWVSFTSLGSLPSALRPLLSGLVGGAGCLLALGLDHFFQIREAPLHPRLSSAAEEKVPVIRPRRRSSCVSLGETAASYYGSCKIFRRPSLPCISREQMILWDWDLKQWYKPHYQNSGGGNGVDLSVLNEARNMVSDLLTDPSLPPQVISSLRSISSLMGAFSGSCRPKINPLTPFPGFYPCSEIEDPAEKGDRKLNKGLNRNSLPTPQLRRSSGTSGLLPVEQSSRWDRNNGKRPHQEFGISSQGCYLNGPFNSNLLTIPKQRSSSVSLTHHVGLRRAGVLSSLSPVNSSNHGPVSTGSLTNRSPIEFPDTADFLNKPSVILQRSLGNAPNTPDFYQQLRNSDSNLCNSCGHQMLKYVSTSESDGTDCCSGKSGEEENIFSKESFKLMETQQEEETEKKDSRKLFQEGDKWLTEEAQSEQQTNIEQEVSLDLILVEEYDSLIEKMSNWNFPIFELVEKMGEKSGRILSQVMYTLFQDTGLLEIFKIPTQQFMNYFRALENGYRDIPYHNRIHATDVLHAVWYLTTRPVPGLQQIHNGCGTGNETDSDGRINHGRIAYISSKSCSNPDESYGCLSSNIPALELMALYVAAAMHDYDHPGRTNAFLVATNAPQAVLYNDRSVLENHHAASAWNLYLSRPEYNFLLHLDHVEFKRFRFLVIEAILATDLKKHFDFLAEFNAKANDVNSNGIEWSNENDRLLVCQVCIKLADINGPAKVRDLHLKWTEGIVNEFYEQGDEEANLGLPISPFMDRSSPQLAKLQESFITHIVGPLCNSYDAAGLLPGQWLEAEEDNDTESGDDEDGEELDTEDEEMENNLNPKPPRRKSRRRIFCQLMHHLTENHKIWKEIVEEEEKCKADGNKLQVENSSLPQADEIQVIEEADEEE
Chain of human full length PDE3A (Q14432 whole entry): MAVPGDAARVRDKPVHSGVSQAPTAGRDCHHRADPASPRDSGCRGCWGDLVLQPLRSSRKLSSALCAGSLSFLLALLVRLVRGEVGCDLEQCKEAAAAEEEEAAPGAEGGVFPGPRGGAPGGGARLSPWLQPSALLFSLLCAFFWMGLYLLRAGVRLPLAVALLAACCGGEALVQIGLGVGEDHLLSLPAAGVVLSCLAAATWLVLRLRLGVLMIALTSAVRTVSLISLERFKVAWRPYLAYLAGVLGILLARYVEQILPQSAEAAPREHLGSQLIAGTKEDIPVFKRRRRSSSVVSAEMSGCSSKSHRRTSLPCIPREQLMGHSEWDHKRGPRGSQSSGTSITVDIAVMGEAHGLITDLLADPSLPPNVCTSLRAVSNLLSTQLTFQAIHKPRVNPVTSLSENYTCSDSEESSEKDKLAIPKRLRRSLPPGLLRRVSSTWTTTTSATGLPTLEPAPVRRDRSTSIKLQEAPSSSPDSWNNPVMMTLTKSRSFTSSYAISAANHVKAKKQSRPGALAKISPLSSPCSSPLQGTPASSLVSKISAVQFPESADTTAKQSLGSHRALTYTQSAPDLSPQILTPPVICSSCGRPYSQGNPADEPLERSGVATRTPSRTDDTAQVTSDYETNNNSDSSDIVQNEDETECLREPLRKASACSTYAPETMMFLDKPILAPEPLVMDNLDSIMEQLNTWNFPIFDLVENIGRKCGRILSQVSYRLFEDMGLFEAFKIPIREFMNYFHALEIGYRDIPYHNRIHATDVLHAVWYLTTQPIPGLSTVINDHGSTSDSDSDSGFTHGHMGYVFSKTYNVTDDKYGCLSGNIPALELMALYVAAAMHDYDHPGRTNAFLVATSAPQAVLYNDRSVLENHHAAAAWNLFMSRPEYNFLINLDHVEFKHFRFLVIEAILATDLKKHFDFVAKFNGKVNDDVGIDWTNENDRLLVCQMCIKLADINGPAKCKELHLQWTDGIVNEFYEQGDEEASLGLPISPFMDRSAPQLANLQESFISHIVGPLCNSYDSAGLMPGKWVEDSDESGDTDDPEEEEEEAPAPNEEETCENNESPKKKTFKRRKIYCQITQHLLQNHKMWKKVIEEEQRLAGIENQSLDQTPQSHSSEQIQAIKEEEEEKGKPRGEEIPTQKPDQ

**Q.** Which results are given for `O=C1NN=C(c2ccc(-c3ccccc3)c(F)c2)CO1` [Example 89, 5-(2-Fluorobiphenyl-4-yl)-3,6-dihydro-2H-1,3,4-oxadiazin-2-one]?
**A.** IC50 [1]: 110 nM; IC50 [2]: 140 nM; IC50 [3]: 2 nM; IC50 [4]: 5 nM

**Q.** `CN1CC=C(c2ccc(C3=NNC(=O)OC3)cc2C(F)(F)F)CC1` [Example 133, 5-[4-(1-Methyl-1,2,3,6-tetrahydropyridin-4-yl)-3-(trifluoromethyl)phenyl]-3,6-dihydro-2H-1,3,4-oxadiazin-2-one] was tested. Which IC50 [1] did it give?
**A.** > 1000 nM

**Q.** What about the IC50 [2] of the same molecule?
**A.** > 1000 nM

**Q.** And the IC50 [3]?
**A.** 32 nM

**Q.** What about the IC50 [4] of the same molecule?
**A.** 51 nM

**Q.** What does the source list for `O=C1NN=C(c2ccc(NC[C@H]3CCCO3)c(C(F)(F)F)c2)CO1` [Example 225, 5-[4-({[(2R)-Oxolan-2-yl]methyl}amino)-3-(trifluoromethyl)phenyl]-3,6-dihydro-2H-1,3,4-oxadiazin-2-one]?
**A.** IC50 [1]: 45 nM; IC50 [2]: 220 nM; IC50 [3]: 3 nM; IC50 [4]: 5 nM

**Q.** How did the IC50 [1] turn out when `Cc1ncc(-c2ccc(C3=NNC(=O)OC3)cc2C(F)(F)F)s1` [Example 54, 5-[4-(2-Methyl-1,3-thiazol-5-yl)-3-(trifluoromethyl)phenyl]-3,6-dihydro-2H-1,3,4-oxadiazin-2-one] was run?
**A.** 100 nM

**Q.** What about the IC50 [2] of the same molecule?
**A.** 89 nM

**Q.** And the IC50 [3]?
**A.** 1 nM

**Q.** What about the IC50 [4] of the same molecule?
**A.** 3 nM

**Q.** With `Nc1cc(-c2ccc(C3=NNC(=O)OC3)cc2OC(F)(F)F)ccc1F` [Example 60, 5-[3′-Amino-4′-fluoro-2-(trifluoromethoxy)biphenyl-4-yl]-3,6-dihydro-2H-1,3,4-oxadiazin-2-one] as the molecule, how does the IC50 [1] read?
**A.** 270 nM

**Q.** And the IC50 [2]?
**A.** 510 nM

**Q.** And the IC50 [3]?
**A.** 13 nM

**Q.** And the IC50 [4]?
**A.** 20 nM

**Q.** Which results are given for `Cc1ccc(-c2ccc(C3=NNC(=O)O[C@H]3C)cc2C(F)(F)F)c(F)c1` [Example 168, (6S)-5-[2′-Fluoro-4′-methyl-2-(trifluoromethyl)[1,1′-biphenyl]-4-yl]-6-methyl-3,6-dihydro-2H-1,3,4-oxadiazin-2-one]?
**A.** IC50 [1]: 170 nM; IC50 [2]: 220 nM; IC50 [3]: 14 nM; IC50 [4]: 25 nM

**Q.** For `O=C1NN=C(c2ccc(C3=CCC(O)CC3)c(C(F)(F)F)c2)CO1` (racemic) [Example 141, (rac)-5-[4′-Hydroxy-2-(trifluoromethyl)-2′,3′,4′,5′-tetrahydro[1,1′-biphenyl]-4-yl]-3,6-dihydro-2H-1,3,4-oxadiazin-2-one], which IC50 [1] is on record?
**A.** 13 nM

**Q.** And the IC50 [2]?
**A.** 27 nM

**Q.** And the IC50 [3]?
**A.** 2 nM

**Q.** What about the IC50 [4] of the same molecule?
**A.** 3 nM

**Q.** With `O=C1NN=C(c2ccc(-c3cccc(F)c3F)c(F)c2)CO1` [Example 109, 5-(2,2′,3′-Trifluoro[1,1′-biphenyl]-4-yl)-3,6-dihydro-2H-1,3,4-oxadiazin-2-one] as the molecule, how does the IC50 [1] read?
**A.** 46 nM

**Q.** What about the IC50 [2] of the same molecule?
**A.** 32 nM

**Q.** What about the IC50 [3] of the same molecule?
**A.** 4 nM

**Q.** And the IC50 [4]?
**A.** 9 nM

**Q.** With `CC(C)=Cc1ccc(C2=NNC(=O)OC2)cc1OC(F)(F)F` [Example 164, 5-[4-(2-Methylprop-1-en-1-yl)-3-(trifluoromethoxy)phenyl]-3,6-dihydro-2H-1,3,4-oxadiazin-2-one] as the molecule, how does the IC50 [1] read?
**A.** 300 nM

**Q.** What about the IC50 [2] of the same molecule?
**A.** 200 nM

**Q.** And the IC50 [3]?
**A.** 6 nM

**Q.** And the IC50 [4]?
**A.** 8 nM

**Q.** `O=C1NN=C(c2ccc(-c3cc(F)cc(F)c3)c(F)c2)CO1` [Example 110, 5-(2,3′,5′-Trifluoro[1,1′-biphenyl]-4-yl)-3,6-dihydro-2H-1,3,4-oxadiazin-2-one] was tested. Which IC50 [1] did it give?
**A.** 100 nM

**Q.** And the IC50 [2]?
**A.** 140 nM

**Q.** What about the IC50 [3] of the same molecule?
**A.** 8 nM

**Q.** And the IC50 [4]?
**A.** 14 nM

**Q.** With `C[C@@H]1OC(=O)NN=C1c1ccc(-c2cc(F)c(F)cc2F)c(C(F)(F)F)c1` [Example 169, (6S)-6-Methyl-5-[2′,4′,5′-trifluoro-2-(trifluoromethyl)[1,1′-biphenyl]-4-yl]-3,6-dihydro-2H-1,3,4-oxadiazin-2-one] as the molecule, how does the IC50 [1] read?
**A.** 180 nM

**Q.** What about the IC50 [2] of the same molecule?
**A.** 240 nM

**Q.** And the IC50 [3]?
**A.** 20 nM

**Q.** What about the IC50 [4] of the same molecule?
**A.** 32 nM

**Q.** Which IC50 [1] does the source give for `Nc1cc(-c2ccc(C3=NNC(=O)OC3)cc2F)ccn1` [Example 90, 5-[4-(2-Aminopyridin-4-yl)-3-fluorophenyl]-3,6-dihydro-2H-1,3,4-oxadiazin-2-one] here?
**A.** 43 nM

**Q.** What about the IC50 [2] of the same molecule?
**A.** 100 nM

**Q.** And the IC50 [3]?
**A.** 16 nM

**Q.** And the IC50 [4]?
**A.** 30 nM

**Q.** What does the source list for `Cc1cc(C2=NNC(=O)OC2)ccc1-c1ccc(=O)[nH]c1` [Example 12, 5-[3-Methyl-4-(6-oxo-1,6-dihydropyridin-3-yl)phenyl]-3,6-dihydro-2H-1,3,4-oxadiazin-2-one]?
**A.** IC50 [1]: 31 nM; IC50 [2]: 30 nM; IC50 [3]: 20 nM; IC50 [4]: 58 nM

**Q.** How did the IC50 [1] turn out when `Cc1cc(-c2ccc(C3=NNC(=O)OC3)cc2C(F)(F)F)sc1C#N` [Example 152, 3-Methyl-5-[4-(2-oxo-3,6-dihydro-2H-1,3,4-oxadiazin-5-yl)-2-(trifluoromethyl)phenyl]thiophene-2-carbonitrile] was run?
**A.** 63 nM

**Q.** What about the IC50 [2] of the same molecule?
**A.** 76 nM

**Q.** What about the IC50 [3] of the same molecule?
**A.** 21 nM

**Q.** And the IC50 [4]?
**A.** 56 nM

**Q.** `CCc1ccccc1-c1ccc(C2=NNC(=O)O[C@H]2C)cc1C(F)(F)F` [Example 186, (6S)-5-[2′-Ethyl-2-(trifluoromethyl)[1,1′-biphenyl]-4-yl]-6-methyl-3,6-dihydro-2H-1,3,4-oxadiazin-2-one] was tested. Which IC50 [3] did it give?
**A.** 61 nM

**Q.** And the IC50 [4]?
**A.** 71 nM

**Q.** With `Nc1ncc(-c2ccc(C3=NNC(=O)OC3)cc2F)cn1` [Example 330, 5-[4-(2-aminopyrimidin-5-yl)-3-fluorophenyl]-3,6-dihydro-2H-1,3,4-oxadiazin-2-one] as the molecule, how does the IC50 [3] read?
**A.** > 100 nM

**Q.** And the IC50 [4]?
**A.** > 100 nM

**Q.** Which IC50 [3] does the source give for `Cc1cc(C2=NNC(=O)OC2)ccc1-c1cccnc1` [Example 13, 5-[3-Methyl-4-(pyridin-3-yl)phenyl]-3,6-dihydro-2H-1,3,4-oxadiazin-2-one] here?
**A.** 27 nM

**Q.** What about the IC50 [4] of the same molecule?
**A.** 82 nM

**Q.** `O=C1NN=C(c2ccc(NCC3CCOC3)c(C(F)(F)F)c2)CO1` (racemic) [Example 245, (rac)-5-[4-{[(Oxolan-3-yl)methyl]amino}-3-(trifluoromethyl)phenyl]-3,6-dihydro-2H-1,3,4-oxadiazin-2-one] was tested. Which IC50 [1] did it give?
**A.** 75 nM

**Q.** And the IC50 [2]?
**A.** 100 nM

**Q.** What about the IC50 [3] of the same molecule?
**A.** 3 nM

**Q.** What does the source list for `O=C1NN=C(c2ccc(N[C@@H]3C[C@@H]4CC[C@@H]3C4)c(C(F)(F)F)c2)CO1` [Example 233, 5-[4-{[(1R,2R,4R)-Bicyclo[2.2.1]heptan-2-yl]amino}-3-(trifluoromethyl)phenyl]-3,6-dihydro-2H-1,3,4-oxadiazin-2-one]?
**A.** IC50 [1]: 86 nM; IC50 [2]: 250 nM; IC50 [3]: 8 nM
